Results reported in PMC5306082, “Physiologically based kinetic modeling of the bioactivation of myristicin” (Archives of Toxicology, 2016).

Key:
Format in all cases: in vitro ADME
[1] = Glucuronidation of 1′-hydroxymyristicin, human liver S9; settings: both sexes, human, pH 7.4; 1′-hydroxymyristicin to its glucuronide; S9, UDPGA; read-out: Km
Description: The kinetic constants for the metabolic conversion of 1′-hydroxymyristicin to 1′-hydroxymyristicin glucuronide (HMG) by both male rat and human liver fractions were determined as described previously for the related 1′-hydroxyalkenylbenzenes (Punt et al. [2008]; van den Berg et al. [2012]; Punt et al. [2009]; Martati et al. [2011], [2012]; Al-Subeihi et al. [2011], [2012]). Briefly, incubations contained (final concentrations) 10 mM of UDPGA and 0.5 mg/ml of male Sprague–Dawley or pooled gender human S9 protein in 0.2 M Tris–HCl (pH 7.4) containing 10 mM of MgCl2. To overcome enzyme latency and to obtain maximal glucuronidation activity, incubations containing S9 were pretreated on ice with 0.025 mg/ml alamethicin added from a 200 times concentrated stock dissolved in methanol (Fisher et al. [2000]; Lin and Wong [2002]). After 15 min of alamethicin treatment, samples were pre-incubated at 37 °C for 1 min, and reactions were subsequently started by adding 1′-hydroxymyristicin at final concentrations of 10 to 1200 μM. 1′-Hydroxymyristicin was added from 100 times concentrated stock solutions in DMSO. The reaction mixtures were incubated for 30 and 180 min for rat and human, respectively, and terminated by adding 25 µl (0.25 times the incubation volume) of ice-cold ACN. Blank incubations were carried out in the absence of the cofactor UDPGA. Experiments were performed in triplicate. The longer incubation time in human samples was required due to the lower rate of glucuronidation. The formation of 1′-hydroxymyristicin glucuronide was linear with time and the S9 protein concentration under the experimental conditions described. All samples were centrifuged for 5 min at 16,000×g, and the supernatant was stored at −20 °C until ultra-performance liquid chromatography (UPLC) analysis.
1′-Hydroxymyristicin glucuronide was estimated based on the comparison of the peak area of the formed metabolite to the calibration curve of 1′-hydroxymyristicin at a wavelength of 210 nm. The flow rate was 0.6 ml/min. The gradient was made using a mixture of ACN and ultrapure water containing 0.1 % (v/v) TFA.

[2] = Oxidation of 1′-hydroxymyristicin to 1′-oxomyristicin, human liver microsomes; settings: human vs rat
Description: (§1) The kinetic constants for the enzymatic conversion of 1′-hydroxymyristicin to 1′-oxomyristicin were determined using incubation mixtures containing (final concentrations) 3 mM NAD^+, 2 mM GSH, and 1 mg/ml rat or human liver microsomes in 0.2 M Tris–HCl (pH 7.4). GSH was added to the incubation mixtures to trap the reactive 1′-oxo metabolite formed after oxidation of 1′-hydroxymyristicin. The level of GSH in the incubations was optimized in a previous study to obtain maximum scavenging of 1′-oxoestragole (Punt et al. [2009]). To this end, incubations were performed in the presence of increasing concentrations of GSH, ranging from 2 to 10 mM. […] Kinetic constants for this reaction in rat and human liver were derived by performing incubations with NAD^+ as a cofactor, given that in rat and human liver, NAD^+ is mainly present in an oxidized form with levels of NAD^+ being much higher than those of NADH. In a previous study, it was shown that the highest level of 1′-hydroxy alkenylbenzene oxidation occurs in incubations with microsomes in the presence of NAD^+ as cofactor. […] The enzyme responsible for the oxidation may be 17β-hydroxysteroid dehydrogenase type 2 (17β-HSD2) (Punt et al. [2010]). Prior to the addition of 1′-hydroxymyristicin at final concentrations ranging between 10 and 4000 μM to the incubation mixture from 100 times concentrated stock solutions in DMSO, samples were pre-incubated for 1 min at 37 °C. Reactions were terminated after 10 min of incubation at 37 °C by adding 25 μl (0.25 times the incubation volume) of ice-cold ACN. The formation of the GSH conjugate of 1′-oxomyristicin (GS-1′-oxomyristicin) was linear with time and microsomal protein concentration under the experimental conditions used. Blank incubations were performed without the cofactor NAD^+. Incubations were performed in triplicate. All samples were centrifuged for 5 min at 13,000×g, and the supernatant was stored at −20 °C until UPLC analysis.
(§2) Quantification of GS-1′-oxomyristicin was based on a calibration curve of the GSH adduct of the synthesized 1′-oxymyristicin made as previously described (van den Berg et al. [2012]; Punt et al. [2009]; Martati et al. [2011]; Al-Subeihi et al. [2011]). In short, a 60 μM concentration of the synthetic standard of 1′-oxomyristicin, dissolved in ACN, was incubated with different concentrations of GSH (i.e., 0–20 μM) in 0.2 M Tris–HCl (pH 7.4) for 6 h at 37 °C, resulting in full conversion of the GSH to GS-1′-oxymyristicin. Quantification was done by comparing the peak areas of the formed GS-1′-oxo metabolite in the incubation mixtures with peak areas of the GS-1′-oxymyristicin calibration curve thus obtained at a wavelength of 212 nm. The gradient for analysis of the metabolite consisted of a mixture of ACN and ultrapure water containing 0.1 % (v/v) TFA. The flow rate was 0.6 ml/min, The gradient started with 10 % ACN, increased to 30 % ACN over 2.5 min, after which ACN was increased to 80 % over 0.5 min, kept at 80 % for 0.5 min, followed by a decrease to 10 % over 0.5 min, and finally kept at 10 % for 0.5 min.

[3] = Oxidation of 1′-hydroxymyristicin to 1′-oxomyristicin, rat liver microsomes; settings: rat vs human
Description: as §1, §2

Structure (SMILES): C=CC(O)c1cc(OC)c2c(c1)OCO2 (stereo not drawn) [1′-Hydroxymyristicin, 1′-hydroxymyristicin]
- Km at 180 min [1]: 3.14 mM
- oxidation, times more efficient in human liver than in male rat liver [2]: 1.2 times
- oxidation, fold lower affinity in rat than in human [3]: 1.8 fold
